Results: patent US20230191357A1, “SYSTEM AND METHOD FOR ENHANCING THE REACTION POTENTIAL OF PRODUCTS GENERATED FROM IONIZATION, PHOTON-ENHANCED THERMIONIC EMISSION, MULTI PHOTON ABSORPTION, PHOTOOXIDATION, PHOTOCATALYTIC, AND PHOTOCHEMICAL REACTIONS WITH OXIDIZING AGENTS” (Bis Science LLC, priority 2021, published 2023)
Several values for one entry are separate records, joined by “and”; a condition that tells them apart may be missing. Equal entries are not always repeated.

Assays:
Format in all cases: cell-based
[1] = tested on: viable cells (microbial counts); test: Independent lab testing of the HVAC antimicrobial system utilizing Photon Augmented Oxidizing Agents (coupons, ambient air); conditions: 1 part per million, 5 minute contact time with the ambient air
Text: All test samples were compared against the Control provided. (Independent lab testing of the HVAC antimicrobial system utilizing Photon Augmented Oxidizing Agents).

E. coli ATCC 11229 = test: Carrier test of residual antimicrobial effect, 4 weeks post photon exposure; conditions: contact time 10 Minutes, 4 weeks post exposure to radiation
[2] = tested on: Staphylococcus aureus ATCC 6538; test: Hydrogen peroxide exposed or not exposed to photons applied to inoculated target microbes; conditions: contact time 5 Minutes; for CFU/ml: single replicates
Experimental: The test substances were hydrogen peroxide at 1 ppm and at 0.3%, which were exposed or not exposed to photons of 0.01 nm through 845 nm and applied to target of microbes, which included a carrier for the inoculated target microbes such as agar with a viable bacteria concentration of Staphylococcus aureus ATCC 6538. The control for this test was a similar inoculated plate and it was treated in the same manor but there was no application of photons to the oxidizing agent.

| Compound | microbial reduction [1] | Average Log10 Reduction Compared to Controls (E. coli ATCC 11229) [Log10] | Average Percent Reduction Compared to Controls (E. coli ATCC 11229) [%] | CFU/Carrier (E. coli ATCC 11229) [CFU/Carrier] | Average Percent Reduction Compared to Controls (E. coli ATCC 11229; listed as control substance) [%] | Average CFU/ml [2] [CFU/ml] | Average Log10 Reduction Compared to Controls [2] | Average Percent Reduction Compared to Controls [2] | CFU/ml [2] |
| --- | --- | --- | --- | --- | --- | --- | --- | --- | --- |
| OO [standard hydrogen peroxide, hydrogen peroxide] | little or no microbial reduction |  |  |  |  |  |  |  |  |
| OO [Control Substance, hydrogen peroxide] |  | 0.11 | 23.08 | 3.00E+04 | 23.08 |  |  |  |  |
| OO [1 PPM No photon emission, hydrogen peroxide] |  |  |  |  |  | 4.05E+06 | No Reduction | No Reduction | 4.10E+06 CFU/ml |
| OO [0.3% No photon emission, hydrogen peroxide] |  |  |  |  |  | 4.05E+06 | No Reduction | No Reduction | 4.10E+06 CFU/ml and 4.00E+06 CFU/ml |
